Assay results: patent US7544679B2 (Hoffman-La Roche Inc., priority 2007, dated 2009)
Values after ≈ are worked out from the molar mass of the structure shown. Where two headings read alike, the source gives them in different places.

How the values were obtained:
[1] = target: T1, γ-secretase (Homo sapiens, UniProt P49768); test: in vitro assay of γ-secretase activity (HEK293 membrane fraction, recombinant APP substrate, Abeta ELISA); type: biochemical; conditions: for Comments: potency (and THESA solubility) of the present example compared with the corresponding example from WO 2005/023772
T1 construct: HEK293 membrane fraction as a source of γ-secretase
Text: Description of γ-secretase Assay
The activity of test compounds can be evaluated in assays which measure the proteolytic cleavage of suitable substrates by γ-secretase activity. These can be cellular assays where e.g., a substrate of the γ-secretase is fused in its cytoplasmic domain to a transcription factor. Cells are transfected with this fusion gene and a reporter gene, e.g., firefly luciferase, which expression is enhanced by the transcription factor. Cleavage of the fused substrate by γ-secretase will lead to expression of the reporter gene which can be monitored in appropriate assays. The γ-secretase activity can also be determined in cell-free in vitro assays where e.g., a cell lysate containing the γ-secretase complex is incubated with a suitable APP-derived substrate which is cleaved to the Abeta peptides. The amount of produced peptides can be determined with specific ELISA assays. Cell lines of neuronal origin secrete Abeta peptides which can be measured with the specific ELISA assay. Treatment with compounds which inhibit γ-secretase leads to a reduction of secreted Abeta thus providing a measure of inhibition.
The in vitro assay of γ-secretase activity uses a HEK293 membrane fraction as a source of γ-secretase and a recombinant APP substrate. Latter consist of the C-terminal 100 amino acids of human APP fused to a 6×Histidin tail for purification which is expressed in E.coli in a regulatable expression vector, e.g. pEt15. This recombinant protein corresponds to the truncated APP fragment which results after […] of the extracellular domain and which constitutes the γ-secretase substrate. The assay principle is described in Li Y M et al, PNAS 97(11), 6138-6143 (2000). Hek293 cells are mechanically disrupted and the microsomal fraction is isolated by differential centrifugation. The membranes are solubilized in detergent (0.25% CHAPSO) and incubated with the APP substrate. The Abeta peptides which are produced by γ-secretase cleavage of the substrate are detected by specific ELISA assays as described (Brockhaus M et al, Neuroreport 9(7), 1481-1486 (1998).

[2] = THESA assay for determination of the thermodynamic solubility; type: physicochemical; conditions: 22.5 °C, aqueous buffer, thermodynamic from solid, second figure of the cell
Protocol: In addition, the compounds of the present invention have been tested in a THESA assay for determination of the thermodynamic solubility.
Approximately 2 mg of each compound was added in excess to a 50 mM phosphate buffer, at room temperature (22.5±1° C.). Each sample was placed in a microanalysis tube, which was sonicated for 1 h and agitated for 2 h. All suspensions were left overnight. At the next day all pHs were measured with a pH-meter and the samples filtered with a micronic filterplate (MSGVN2250) to separate the solid material from the solution. Then, all solutions were analyzed by HPLC. The calibration line was established by different concentrations of the compound in DMSO. From this regression equation the solubility of the compound was determined.

[3] = 50 mM phosphate buffer, room temperature (22.5±1° C.), read-out: THESA (IC50/THESA, Example No. present appl.)
[4] = comparison compounds from WO 2005/023772, 50 mM phosphate buffer, room temperature, read-out: THESA (IC50/THESA, Corresponding Example from WO 2005/023772)

Comments [1] | solubility thermodynamic [2, 3] [µg/mL] | solubility thermodynamic [2, 4] [µg/mL] | SMILES | further results
Higher potency |  |  | CCCC(O)(C(=O)NCCC(F)(F)F)C(=O)N[C@@H]1C(=O)Nc2ccccc2-c2ccccc21 (mixture of isomers) [Example 6a] | 
Higher potency |  |  | CC(O)(C(=O)NCC(F)(F)C(F)(F)F)C(=O)N[C@@H]1C(=O)N(CC(F)(F)F)c2ccccc2-c2ccccc21 (mixture of isomers) [Example 12a] | 
Higher potency |  |  | CCCC(O)(C(N)=O)C(=O)N(CCC(F)(F)F)[C@@H]1C(=O)Nc2ccccc2-c2ccccc21 (single isomer, unassigned) [Example 6g, (R or S)-2-Hydroxy-N-((S)-6-oxo-6,7-dihydro-5H-dibenzo[b,d]azepin-7-yl)-2-propyl-N-(3,3,3-trifluoro-propyl)-malonamide] | 
 | 19 (≈ 40.3 µM) |  | C[C@@](O)(C(=O)NCC(F)(F)C(F)(F)F)C(=O)N[C@@H]1C(=O)Nc2ccccc2-c2ccccc21 [Example 1b, (R)-2-Hydroxy-2-methyl-N-((S)-6-oxo-6,7-dihydro-5H-dibenzo[b,d]azepin-7-yl)-N′-(2,2,3,3,3-pentafluoro-propyl)-malonamide] | 
 | 14 (≈ 29.7 µM) |  | C[C@](O)(C(=O)NCC(F)(F)C(F)(F)F)C(=O)N[C@@H]1C(=O)Nc2ccccc2-c2ccccc21 [Example 1c, (S)-2-Hydroxy-2-methyl-N-((S)-6-oxo-6,7-dihydro-5H-dibenzo[b,d]azepin-7-yl)-N′-(2,2,3,3,3-pentafluoro-propyl)-malonamide] | 
Higher potency, higher solubility | 127 (≈ 292 µM) |  | C[C@](O)(C(=O)NCCC(F)(F)F)C(=O)N[C@@H]1C(=O)Nc2ccccc2-c2ccccc21 [Example 2c, (S)-2-Hydroxy-2-methyl-N-((S)-6-oxo-6,7-dihydro-5H-dibenzo[b,d]azepin-7-yl)-N′-(3,3,3-trifluoro-propyl)-malonamide] | 
Higher potency, higher solubility | 26 (≈ 61.7 µM) |  | C[C@](O)(C(=O)NCC(F)(F)F)C(=O)N[C@@H]1C(=O)Nc2ccccc2-c2ccccc21 [Example 3b, (S)-2-Hydroxy-2-methyl-N-((S)-6-oxo-6,7-dihydro-5H-dibenzo[b,d]azepin-7-yl)-N′-(2,2,2-trifluoro-ethyl)-malonamide] | 
Higher potency | 14 (≈ 27.8 µM) |  | C[C@](O)(C(=O)NCC(F)(F)F)C(=O)N[C@@H]1C(=O)N(CC(F)(F)F)c2ccccc2-c2ccccc21 [Example 13b, (S)-2-Hydroxy-2-methyl-N-[(S)-6-oxo-5-(2,2,2-trifluoro-ethyl)-6,7-dihydro-5H-dibenzo[b,d]azepin-7-yl]-N′-(2,2,2-trifluoro-ethyl)-malonamide] | 
 |  | < 1 | C[C@](F)(C(=O)NCC(F)(F)C(F)(F)F)C(=O)N[C@H]1C(=O)Nc2ccccc2-c2ccccc21 [reference compound] | 
 |  | < 1 | C[C@@](F)(C(=O)NCC(F)(F)C(F)(F)F)C(=O)N[C@H]1C(=O)Nc2ccccc2-c2ccccc21 [reference compound] | 
 |  | < 1 | CC(C)(C(=O)NCCC(F)(F)F)C(=O)N[C@H]1C(=O)Nc2ccccc2-c2ccccc21 [reference compound] | 
 |  | 16 (≈ 38.1 µM) | CC(C)(C(=O)NCC(F)(F)F)C(=O)N[C@H]1C(=O)Nc2ccccc2-c2ccccc21 [reference compound] | 
 |  |  | CCCC(C)(C(=O)NCCC(F)(F)F)C(=O)N[C@H]1C(=O)Nc2ccccc2-c2ccccc21 (stereo partly shown) [reference compound] | IC50 (IC50/THESA, Corresponding Example from WO 2005/023772) ([1]; first figure of the cell, comparison compounds from WO 2005/023772): nearly inactive/—
